Laboratory results reported in patent EP2402020B1, “Pharmaceutical composition comprising extracts of Bupleurum krylovianum for use in the treatment of arthritis and rheumatoid arthritis” (Industrial Technology Research Institute, priority 2010, dated 2012).
Values after ≈ are worked out from the molar mass of the structure shown.

Tests used:
[1] = system: TNF-α; experiment: TNF-α excretion by LPS-stimulated, PMA-activated U937 cells (ELISA); assay type: cell-based, human; conditions: activated U937, 30 minutes preincubation, LPS stimulation 4 hours, supernatant ELISA
Procedure: The cell line, U937 (human monocyte cell line), was incubated in RPMI medium containing 50 ng/ml PMA (phorbol 12-myristate 13-acetate) (Sigma) and 10% fetal bovine serum (Moor et. al., Roswell Park Memorial Institute) for 24 hours. The cell line was then moved to the RPMI medium without PMA for further 48 hours. The activated U937 was seeded into a 96-well plate in a concentration of 1.6×10^5 cell/well. The wells were added 12.5 µg/ml, 25 µg/ml, 50 µg/ml and 100 µg/ml of kaerophyllin and 1 µg/ml, 3 µg/ml, 10 µg/ml and 30 µg/ml of isokaerphyllin and 10 µl of buffer, respectively. Each well was adjusted to a final volume of 190 µl. The plate was reacted under 37°C for 30 minutes. Each well was added 10 µl of 20 µg/ml LPS to stimulate cells. After 4 hours under 37°C, the plate was centrifuged to collect the supernatants.
The amount of TNF-α in the supernatant was measured by ELISA (R&D System®) based on the control (DMSO). Meanwhile, the cell viability was measured by MTT assay (Sigma).

[2] = system: IL-6; experiment: IL-6 excretion by LPS-stimulated, PMA-activated U937 cells (ELISA); assay type: cell-based, human; conditions: activated U937, 30 minutes preincubation, LPS stimulation 16-18 hours, supernatant ELISA
Procedure: The cell line, U937, was cultured like Example 13. The activated U937 was /s then seeded in a 96-well plate in a concentration of 1.6×10^5 cell/well. The wells were added 6.3 µg/ml, […], 25 µg/ml and 50 µg/ml of kaerophyllin and 3.8 µg/ml, 7.5 µg/ml, 15 µg/ml and 30 µg/ml of isokaerphyllin and 10 µl of buffer, respectively. Each well was adjusted to a final volume of 190 µl. The plate was put under 37°C for 30 minutes. Each well was added 10µl of 20 µg/ml LPS to stimulate cells. After 16-18 hours under 37°C, the plate was centrifuged to collect the supernatants.
The amount of IL-6 in the supernatant was measured by ELISA (R&D System®) based on the control (DMSO). Meanwhile, the cell viability was measured by MTT assay (Sigma).

[3] = system: carrageenan induced hindpaw edema; experiment: Carrageenan induced hindpaw edema in a rat model (plethysmometer); assay type: in vivo, Long-Evan rats; conditions: 3 mg/kg fed 1 hour before carrageenan (positive control)
Procedure: Long-Evan rats were fed with the extract (a) in Example 5 (i) in an amount of 250mg/kg, 500 mg/kg, 1000mg/kg, respectively. The positive control was fed with 3mg/kg of indomethacin (NSAID). The negative control was fed with 10ml/kg of 2% Tween 80 as a carrier After 1 hour, the rats were injected 0.1ml of 1% carrageenan on the left hindpaw. The volume of the rat's left hindpaw was measured by plethysmometer (Stoelting) at the 0, 1.5th, and 3rd hour after injection. The inhibition was calculated by the formula :
Inhibition (%)=(Nt-Nv)/Nv × 100
In the formula, Nt represents the left hindpaw volume of the rat fed with the ethanol extract; Nv represents the left hindpaw of the rat fed with the carrier.

[4] = system: TNF-α; experiment: TNBS enteritis mouse model: TNF-α in colon infusion; assay type: in vivo, BABL/c mice; conditions: 0.6mg/kg fed + 1.75mg of TNBS into the colon; colon infusion after 48 hours; negative value = enhanced excretion
Text: (§1) The BABL/c mice were categorized into 4 groups. Each group had 6 […].

[5] = system: IL-6; experiment: TNBS enteritis mouse model: IL-6 in colon infusion; assay type: in vivo, BABL/c mice; conditions: 0.6mg/kg fed + 1.75mg of TNBS into the colon; colon infusion after 48 hours; negative value = enhanced excretion
Text: as §1

Question: With COc1ccc(/C=C2/C(=O)OC[C@@H]2Cc2ccc3c(c2)OCO3)cc1OC [kaerophyllin, trans-(3,4-dimethoxybenzylidene)-β-(3,4-methylenedioxylbenzyl)-γ-butyrolactone] as the compound, how does the IC50 ([1]; Homo sapiens, U-937, read-out: IC50 value (inhibition of the excretion of TNF-α)) read?
Answer: Its IC50 is 44 ± 5 µg/mL (≈ 119 µM).

Question: What about the IC50 ([2]; Homo sapiens, U-937, read-out: IC50 value (inhibition of the excretion of IL-6)) of the same compound?
Answer: Its IC50 is 13 ± 2 µg/mL (≈ 35.3 µM).

Question: How did the “Inhibition at 0 hour (%)” value ([3]; left hindpaw volume at 0 hour) turn out when COc1ccc2c(c1)c(CC(=O)O)c(C)n2C(=O)c1ccc(Cl)cc1 [indomethacin] was run?
Answer: The value was 0%.

Question: What about the “Inhibition at the 1.5th hour (%)” value ([3]; left hindpaw volume at 1.5th hour) of the same compound?
Answer: Its value is 21%.

Question: And the “Inhibition at the 3rd hour (%)” value ([3]; left hindpaw volume at 3rd hour)?
Answer: Its value is 52%.

Question: Which “IC50 value (inhibition of the excretion of TNF-α)” value [1] does the source give for “cis-(3,4-dimethoxybenzylidene)-β-(3,4-methylenedioxylbenzyl)-γ-butyrolactone [isokaerophyllin]” here?
Answer: Its value is 18 ± 4 µg/mL.

Question: And the “IC50 value (inhibition of the excretion of IL-6)” value [2]?
Answer: The value was 24 ± 6 µg/mL.

Question: For C[C@@H]1C[C@H]2[C@@H]3CCC4=CC(=O)C=C[C@]4(C)[C@@]3(F)[C@@H](O)C[C@]2(C)[C@@]1(O)C(=O)CO [DEX, dexamethasone], which “Inhibition of TNF-α(%)” value [4] is on record?
Answer: Its value is 9%.

Question: What about the “Inhibition of IL-6 (%)” value [5] of the same compound?
Answer: The value was -55%.
